Measured values: patent US9302999B2, “Substituted triazoles as herbicides” (E. I. DU PONT DE NEMOURS AND COMPANY, priority 2012, dated 2016)

Key:
Format in all cases: in vivo
[1] = tested on: wheat, winter (winter wheat, Triticum aestivum); assay: Test D pre-/postemergence: wheat, winter
Method in brief: (§1)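 Visual 0–100 rating versus untreated controls (0 no effect, 100 complete control), taken 14 to 21 days after treatment in a controlled growth environment. Preemergence: silt loam soil. Postemergence: peat moss/vermiculite medium, plants 2 to 18 cm, 1- to 4-leaf stage. Solvent mixture with surfactant.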

[2] = tested on: canarygrass (Phalaris minor); assay: Test D pre-/postemergence: canarygrass
Method in brief: as §1

[3] = tested on: radish, wild (wild radish, Raphanus raphanistrum); assay: Test D pre-/postemergence: radish, wild
Excerpt: (§2) Seeds of plant species selected from bluegrass (annual bluegrass, Poa annua), blackgrass (Alopecurus myosuroides), canarygrass (Phalaris minor), chickweed (common chickweed, Stellaria media), galium (catchweed bedstraw, Galium aparine), bromegrass, downy (downy bromegrass, Bromus tectorum), field poppy (Papaver rhoeas), field violet (Viola arvensis), foxtail, green (green foxtail, Setaria viridis), deadnettle (henbit deadnettle, Lamium amplexicaule), ryegrass, Italian (Italian ryegrass, Lolium multiflorum), kochia (Kochia scoparia), lambsquarters (Chenopodium album), oilseed rape (Brassica napus), pigweed (Amaranthus retroflexus), Russian thistle (Salsola iberica), chamomile (scentless chamomile, Matricaria inodora), speedwell (bird's-eye speedwell, Veronica persica), barley, spring (spring barley, Hordeum vulgare), wheat, spring (spring wheat, Triticum aestivum), buckwheat, wild (wild buckwheat, Polygonum convolvulus), mustard, wild (wild mustard, Sinapis arvensis), oat, wild (wild oat, Avena fatua), radish, wild (wild radish, Raphanus raphanistrum), windgrass (Apera spica-venti), barley, winter (winter barley, Hordeum vulgare), and wheat, winter (winter wheat, Triticum aestivum) were planted into a silt loam soil and treated preemergence with test chemicals formulated in a non-phytotoxic solvent mixture which included a surfactant. At the same time, these same crop and weed species were planted in pots containing the planting medium comprising spaghnum peat moss, vermiculite, wetting agent and starter nutrients and treated with postemergence applications of the test chemicals formulated in the same manner. Plants ranged in height from 2 to 18 cm (1- to 4-leaf stage).
(§3) Treated plants and controls were maintained in a controlled growth environment for 14 to 21 days after which time all species were compared to controls and visually evaluated. Plant response ratings, summarized in Table D, are based on a scale of 0 to 100 where 0 is no effect and 100 is complete control. A dash (-) response means no test result.

[4] = tested on: chickweed (common chickweed, Stellaria media); assay: Test D pre-/postemergence: chickweed
Excerpt: as §2, §3

[5] = tested on: bromegrass, downy (downy bromegrass, Bromus tectorum); assay: Test D pre-/postemergence: bromegrass, downy
Excerpt: as §2, §3

[6] = tested on: crabgrass, large (large crabgrass, Digitaria sanguinalis); assay: Test F pre-/postemergence: crabgrass, large; settings: Preemergence
Excerpt: (§4) Seeds of plant species selected from corn (Zea mays), soybean (Glycine max), velvetleaf (Abutilon theophrasti), lambsquarters (Chenopodium album), poinsettia, wild (wild poinsettia, Euphorbia heterophylla), pigweed, palmer (palmer pigweed, Amaranthus palmeri), waterhemp (common waterhemp, Amaranthus rudis), surinam grass (Brachiaria decumbens), crabgrass, Brazil (Brazilian crabgrass, Digitaria horizontalis), panicum, fall (fall panicum Panicum dichotomiflorum), crabgrass, large (large crabgrass, Digitaria sanguinalis), foxtail, giant (giant foxtail, Setaria faberii), foxtail, green (green foxtail Setaria viridis), goosegrass (Eleusine indica), ragweed (common ragweed, Ambrosia elatior), barnyardgrass (Echinochloa crus-galli), sandbur (southern sandbur, Cenchrus echinatus), arrowleaf sida (Sida rhombifolia), ryegrass, Italian (Italian ryegrass, Lolium multiflorum), dayflower, VA (Virginia (VA) dayflower, Commelina virginica), field bindweed (Convolvulus arvensis), cocklebur (common cocklebur, Xanthium strumarium), morningglory (Ipomoea coccinea), nightshade (eastern black nightshade, Solanum ptycanthum), kochia (Kochia scoparia), nutsedge, yellow (yellow nutsedge, Cyperus esculentus), johnsongrass (Sorghum halepense), smartweed (ladysthumb smartweed, Polygonum persicaria), and beggarticks (hairy beggarticks, Bidens pilosa), were planted into a silt loam soil and treated preemergence with test chemicals formulated in a non-phytotoxic solvent mixture which included a surfactant. At the same time, plants selected from these crop and weed species and also pigweed (Amaranthus retroflexus), waterhemp_RES1 (ALS/Triazine resistant common waterhemp, Amaranthus rudis) and waterhemp_RES2 (ALS/HPPD resistant common waterhemp, Amaranthus rudis) were planted in pots containing a planting medium comprising spaghnum peat moss, vermiculite, wetting agent and starter nutrients treated with postemergence applications of some of the test chemicals formulated in the same manner. Plants ranged in height from 2 to 18 cm for postemergence treatments (1- to 4-leaf stage).
as §3, with “greenhouse” for “controlled growth environment”, “days,” for “days”, “E,” for “D,”

[7] = tested on: velvetleaf (Abutilon theophrasti); assay: Test F pre-/postemergence: velvetleaf; settings: Preemergence
Excerpt: as §4
as §3, with “greenhouse” for “controlled growth environment”, “days,” for “days”, “E,” for “D,”

[8] = tested on: foxtail, giant (giant foxtail, Setaria faberii); assay: Test F pre-/postemergence: foxtail, giant; settings: Preemergence
Excerpt: as §4
as §3, with “greenhouse” for “controlled growth environment”, “days,” for “days”, “E,” for “D,”

[9] = tested on: beggarticks (hairy beggarticks, Bidens pilosa); assay: Test F pre-/postemergence: beggarticks; settings: Preemergence
Excerpt: as §4
as §3, with “greenhouse” for “controlled growth environment”, “days,” for “days”, “E,” for “D,”

[10] = Postemergence, 31 g ai/ha, scale 0 to 100 (0 no effect, 100 complete control)
[11] = Postemergence, 62 g ai/ha, scale 0 to 100 (0 no effect, 100 complete control)
[12] = Postemergence, 125 g ai/ha, scale 0 to 100, 0 no effect, 100 complete control
[13] = Postemergence, 250 g ai/ha, scale 0 to 100 (0 no effect, 100 complete control)
[14] = Postemergence, 16 g ai/ha, scale 0 to 100
[15] = Preemergence, 16 g ai/ha, scale 0 to 100, 0 no effect, 100 complete control
[16] = Preemergence, 31 g ai/ha, scale 0 to 100, 0 no effect, 100 complete control
[17] = Preemergence, 62 g ai/ha, scale 0 to 100
[18] = Preemergence, 125 g ai/ha, scale 0 to 100
[19] = Preemergence, 250 g ai/ha, scale 0 to 100
[20] = 16 g ai/ha, scale 0 to 100, 0 no effect, 100 complete control
[21] = 31 g ai/ha, scale 0 to 100, 0 no effect, 100 complete control

Cc1nn(-c2ccc(C(F)(F)F)cc2)nc1Oc1ccnc(C(F)(F)F)c1 [Compound 120]
Plant response rating: Wheat, Winter [1, 10]: 5
Plant response rating: Wheat, Winter [1, 11]: 10
Plant response rating: Wheat, Winter [1, 12]: 15
Plant response rating: Wheat, Winter [1, 13]: 20
Plant response rating, Wheat, Winter [1, 14]: 5
Plant response rating, Wheat, Winter [1, 15]: 0
Plant response rating, Wheat, Winter [1, 16]: 0
Plant response rating, Wheat, Winter [1, 17]: 5
Plant response rating, Wheat, Winter [1, 18]: 5
Plant response rating, Wheat, Winter [1, 19]: 10
Plant response rating: Canarygrass [2, 10]: 5
Plant response rating: Canarygrass [2, 11]: 20
Plant response rating: Canarygrass [2, 12]: 90
Plant response rating: Canarygrass [2, 13]: 95
Plant response rating, Canarygrass [2, 14]: 0
Plant response rating, Canarygrass [2, 15]: 0
Plant response rating, Canarygrass [2, 16]: 90
Plant response rating, Canarygrass [2, 17]: 100
Plant response rating, Canarygrass [2, 18]: 100
Plant response rating, Canarygrass [2, 19]: 100
Plant response rating: Radish, Wild [3, 10]: 100
Plant response rating: Radish, Wild [3, 11]: 90
Plant response rating: Radish, Wild [3, 12]: 100
Plant response rating: Radish, Wild [3, 13]: 100
Plant response rating, Radish, Wild [3, 14]: 100
Plant response rating, Radish, Wild [3, 15]: 0
Plant response rating, Radish, Wild [3, 17]: 20
Plant response rating, Radish, Wild [3, 18]: 90
Plant response rating, Radish, Wild [3, 19]: 100
Plant response rating: Chickweed [4, 10]: 85
Plant response rating: Chickweed [4, 11]: 98
Plant response rating: Chickweed [4, 12]: 100
Plant response rating: Chickweed [4, 13]: 100
Plant response rating, Chickweed [4, 14]: 75
Plant response rating, Chickweed [4, 15]: 20
Plant response rating, Chickweed [4, 16]: 90
Plant response rating, Chickweed [4, 17]: 90
Plant response rating, Chickweed [4, 18]: 100
Plant response rating, Chickweed [4, 19]: 100
Plant response rating: Bromegrass, Downy [5, 10]: 10
Plant response rating: Bromegrass, Downy [5, 11]: 10
Plant response rating: Bromegrass, Downy [5, 12]: 20
Plant response rating: Bromegrass, Downy [5, 13]: 25
Plant response rating, Bromegrass, Downy [5, 14]: 5
Plant response rating, Bromegrass, Downy [5, 15]: 0
Plant response rating, Bromegrass, Downy [5, 16]: 0
Plant response rating, Bromegrass, Downy [5, 17]: 5
Plant response rating, Bromegrass, Downy [5, 18]: 25
Plant response rating, Bromegrass, Downy [5, 19]: 60

COc1nn(-c2ccc(C(F)(F)F)cc2)nc1Cc1ccnc(C(F)F)c1 [Compound 138]
Plant response rating: Wheat, Winter [1, 10]: 20
Plant response rating: Wheat, Winter [1, 11]: 20
Plant response rating: Wheat, Winter [1, 12]: 20
Plant response rating: Wheat, Winter [1, 13]: 25
Plant response rating, Wheat, Winter [1, 14]: 10
Plant response rating: Canarygrass [2, 10]: 25
Plant response rating: Canarygrass [2, 11]: 30
Plant response rating: Canarygrass [2, 12]: 50
Plant response rating: Canarygrass [2, 13]: 80
Plant response rating, Canarygrass [2, 14]: 10
Plant response rating: Radish, Wild [3, 10]: 80
Plant response rating: Radish, Wild [3, 11]: 95
Plant response rating: Radish, Wild [3, 12]: 100
Plant response rating: Radish, Wild [3, 13]: 100
Plant response rating, Radish, Wild [3, 14]: 80
Plant response rating: Chickweed [4, 10]: 60
Plant response rating: Chickweed [4, 11]: 85
Plant response rating: Chickweed [4, 12]: 95
Plant response rating: Chickweed [4, 13]: 100
Plant response rating, Chickweed [4, 14]: 60
Plant response rating: Bromegrass, Downy [5, 10]: 20
Plant response rating: Bromegrass, Downy [5, 11]: 30
Plant response rating: Bromegrass, Downy [5, 12]: 40
Plant response rating: Bromegrass, Downy [5, 13]: 50
Plant response rating, Bromegrass, Downy [5, 14]: 10

COc1nn(-c2cccc(F)c2)nc1Cc1ccnc(C(F)(F)F)c1 [Compound 139]
Plant response rating, Crabgrass, Large [6, 20]: 30
Plant response rating, Crabgrass, Large [6, 21]: 95
Plant response rating, Crabgrass, Large ([6]; 62 g ai/ha, scale 0 to 100): 95
Plant response rating, Crabgrass, Large ([6]; 125 g ai/ha, scale 0 to 100): 100
Plant response rating, Crabgrass, Large ([6]; 250 g ai/ha, scale 0 to 100): 100
Plant response rating, Velvetleaf [7, 20]: 0
Plant response rating, Velvetleaf [7, 21]: 0
Plant response rating, Velvetleaf ([7]; 125 g ai/ha, scale 0 to 100): 0
Plant response rating, Velvetleaf ([7]; 250 g ai/ha, scale 0 to 100): 65
Plant response rating, Foxtail, Giant [8, 20]: 0
Plant response rating, Foxtail, Giant [8, 21]: 40
Plant response rating, Foxtail, Giant ([8]; 62 g ai/ha, scale 0 to 100): 85
Plant response rating, Foxtail, Giant ([8]; 125 g ai/ha, scale 0 to 100): 98
Plant response rating, Foxtail, Giant ([8]; 250 g ai/ha, scale 0 to 100): 100
Plant response rating, Beggarticks [9, 20]: 0
Plant response rating, Beggarticks [9, 21]: 0
Plant response rating, Beggarticks ([9]; 62 g ai/ha, scale 0 to 100): 0
Plant response rating, Beggarticks ([9]; 125 g ai/ha, scale 0 to 100): 0
Plant response rating, Beggarticks ([9]; 250 g ai/ha, scale 0 to 100): 0
